Source: patent US20240092770A1, “Heterocycle RMB39 Modulators” (Recursion Pharmaceuticals, Inc., priority 2022, published 2024)
pEC50: −log10 of the molar value.

Molecular target: RBM39 and the DCAF15 complex (RBM39-Flag / His-DCAF15-DDA1-DDB1) (Homo sapiens (Human), UniProt Q14498+Q66K64)
Test: DCAF15 RBM39 complex formation TR-FRET assay
Type: binding
Settings: RBM39(R150-D331) 3xFlag 50 nM, His-DCAF15-DDA1-DDB1 10 nM, 60 min room temperature
Method: A TR-FRET assay was used to assess the effect of compounds disclosed herein on the interaction between RBM39 and the DCAF15 complex. Test compounds were dissolved to form a 10 mM DMSO stock solution. A 45 μL aliquot of the stock solution was transferred to a 384 pp-plate, and a threefold, 8-point dilution was performed via transferring 15 μL compound solution into 30 μL of DMSO. The plates were then spun at room temperature at 1,000 RPM for 1 minute.
A 30 nL aliquot of the diluted compound was transferred to a 384 well plate, which was incubated at room temperature for 15 minutes. Next, Solutions 1, 2, and 3 were prepared as described in the below tables. A 5 μL aliquot of Solution 2 was added to each well, followed by 5 μL of Solution 3 to start the reaction. The final volume of each well was 10 μL. The plates were incubated at room temperature for 60 minutes, and then read.
Next, an RBM39 (R150-D331) 3× Flag used in TR-FRET assay was prepared:
Recombinant RBM39 protein is composed of the R1R2 of RBM39 (aa 150 to 331; UniProt: Q14498). The coding sequence was sub-cloned into pGEX4T-1-RBM39-flag vector, expressed as a GST-fusion protein with N-terminal TEV protease cleavage site. A 3× Flag tag was added to the C-terminal of R1R2 used in a FRET assay.

Row | SMILES | pEC50
1 | Cc1ccc(NS(=O)(=O)c2nccs2)c2[nH]cc(C#N)c12 [Compound 2] | 5.99
2 | Cc1ccc(NS(=O)(=O)c2ncc(Cl)s2)c2[nH]cc(C#N)c12 [Compound 3] | 6.37
3 | Cc1ccc(NS(=O)(=O)c2cnc(Cl)s2)c2[nH]cc(C#N)c12 [Compound 7] | 6.97
4 | CCc1nc(S(=O)(=O)Nc2ccc(C)c3c(C#N)c[nH]c23)c[nH]1 [Compound 8, N-(3-cyano-4-methyl-1H-indol-7-yl)-2-ethyl-1H-imidazole-4-sulfonamide] | 6.10
5 | Cc1cnc(S(=O)(=O)Nc2ccc(C)c3c(C#N)c[nH]c23)s1 [Compound 9] | 6.36
6 | Cc1sc(S(=O)(=O)Nc2ccc(C)c3c(C#N)c[nH]c23)nc1C#N [Compound 10] | 7.12
7 | Cc1sc(S(=O)(=O)Nc2ccc(C)c3c(C#N)c[nH]c23)nc1Br [Compound 11] | 6.97
8 | Cc1ccc(NS(=O)(=O)c2nc(C(F)(F)F)cs2)c2[nH]cc(C#N)c12 [Compound 12, N-(3-cyano-4-methyl-1H-indol-7-yl)-4-(trifluoromethyl)-1,3-thiazole-2-sulfonamide] | 6.42
9 | Cc1ccc(NS(=O)(=O)c2nc(Br)cs2)c2[nH]cc(C#N)c12 [Compound 13] | 6.53
10 | Cc1ccc(NS(=O)(=O)c2cnc(C(F)(F)F)s2)c2[nH]cc(C#N)c12 [Compound 24] | 6.57
11 | N#Cc1c[nH]c2c(NS(=O)(=O)c3nccs3)cccc12 [Compound 27] | 5.55
12 | Cc1ccc(NS(=O)(=O)c2ncc(-c3cccnc3)s2)c2[nH]cc(C#N)c12 [Compound 32] | 6.87
13 | N#Cc1c[nH]c2c(NS(=O)(=O)c3cnc(C(F)(F)F)s3)cccc12 [Compound 34] | 6.52
14 | Cc1ccc(NS(=O)(=O)c2ncc(-c3ccncc3)s2)c2[nH]cc(C#N)c12 [Compound 36] | 6.45
15 | Cc1ccc(NS(=O)(=O)c2ncc(-c3ccccn3)s2)c2[nH]cc(C#N)c12 [Compound 37] | 6.37
16 | CCc1nc(S(=O)(=O)Nc2cccc3c(C#N)c[nH]c23)c[nH]1 [Compound 38] | 5.38

Row | SMILES | pEC50
17 | Cc1ccc(NS(=O)(=O)c2c[nH]c(C(C)C)n2)c2[nH]cc(C#N)c12 [Compound 39] | 6.28
18 | Cc1ccc(NS(=O)(=O)c2cnc(Br)s2)c2[nH]cc(C#N)c12 [Compound 40] | 6.56
19 | Cc1ccc(NS(=O)(=O)c2nc(CCO)cs2)c2[nH]cc(C#N)c12 [Compound 41] | 6.44
20 | Cc1ccc(NS(=O)(=O)c2cncs2)c2[nH]cc(C#N)c12 [Compound 42] | 7.26
21 | Cc1noc(C)c1S(=O)(=O)Nc1ccc(C)c2c(C#N)c[nH]c12 [Compound 43] | < 4.52
22 | Cc1ccc(NS(=O)(=O)c2ncc(CCO)s2)c2[nH]cc(C#N)c12 [Compound 44] | 6.04
23 | Cc1ccc(NS(=O)(=O)c2ncc(-c3ccncn3)s2)c2[nH]cc(C#N)c12 [Compound 45] | 6.40
24 | Cc1ccc(NS(=O)(=O)c2csc(C(F)(F)F)n2)c2[nH]cc(C#N)c12 [Compound 47] | 7.01
25 | Cc1ncc(S(=O)(=O)Nc2ccc(C)c3c(C#N)c[nH]c23)s1 [Compound 48] | 6.90
26 | N#Cc1c[nH]c2c(NS(=O)(=O)c3csc(C(F)(F)F)n3)cccc12 [Compound 49] | 6.72
27 | N#Cc1c[nH]c2c(NS(=O)(=O)c3cncs3)cccc12 [Compound 50, N-(3-cyano-1H-indol-7-yl)thiazole-5-sulfonamide] | 6.02
28 | Cc1ncc(S(=O)(=O)Nc2cccc3c(C#N)c[nH]c23)s1 [Compound 51] | 6.78
29 | Cc1sc(S(=O)(=O)Nc2cccc3c(C#N)c[nH]c23)nc1Br [Compound 55] | 6.52
30 | Cc1ccc(NS(=O)(=O)c2nc(C(=O)O)cs2)c2[nH]cc(C#N)c12 [Compound 57] | < 4.52
31 | CNC(=O)c1csc(S(=O)(=O)Nc2ccc(C)c3c(C#N)c[nH]c23)n1 [Compound 58] | 5.97
32 | Cc1ccc(NS(=O)(=O)c2nc(C(=O)N(C)C)cs2)c2[nH]cc(C#N)c12 [Compound 59] | 6.10
